Experimental data: patent US20190153051A1, “FUSION PROTEIN OF C2 DOMAIN AND AKT KINASE DOMAIN FRAGMENT AND USE THEREOF” (Gachon University of Industry-Academic Cooperation …, priority 2017, published 2019)

Columns and labels:
Akt protein [1] = test: Western blotting of Akt protein phosphorylation in insulin-treated HepG2 cells; format: cell-based, human
Experimental: First, male C57BL/6 mice at 8 weeks were divided into the fasted group wherein the mice were fasted for 16 hours and the refed group wherein the mice were fasted for 16 hours and then fed for 4 hours. Each group was sub-divided into the high fat diet group (HFD) and the normal diet group (chow). The liver cells were extracted from the raised mice by the same manner and under the same conditions as described in Example 1. The extracted liver cells were lysed in a lysis buffer containing phosphatase (Sigma-Aldrich, USA) and protease inhibitor (Sigma-Aldrich, USA). Proteins extracted from 2 to 3 mg of the liver tissue were homogenized by using a tissue homogenizer (TissuLyser, Qiagen, USA) for 1.5 minutes at a frequency of 1/30 sec. The homogenized lysate was centrifuged at 12,000 rpm for 15 minutes and the supernatant was obtained. The amount of the extracted protein was quantified by using a protein assay kit (Bio-Rad Laboratories, USA), and at this time BSA was used as a standard sample. 3 mg of the protein was mixed with 6× loading buffer, followed by electrophoresis using 10% SDS-PAGE gel. The electrophoresed protein was transferred onto a polyvinylidene fluoride (PVDF) membrane by using a transfer buffer at 4° C. with 120 V for 1.5 hours. The PVDF membrane on which the protein was transferred was pretreated with a blocking buffer prepared by mixing 5% skim milk with TBS buffer (TBS-T, pH 7.6) supplemented with Tween 20 for 30 minutes, and the membrane was washed with TBS-T. The washed membrane was added with the antibody against Akt (Cell Signaling Technology, USA), Akt(T308) (Cell Signaling Technology, USA), Akt(S473) (Cell Signaling Technology, USA), FOXO3A (Cell Signaling Technology, USA), FOXO3A(S253) (Cell Signaling Technology, USA), GSK-3β (Cell Signaling Technology, USA) or GSK-3β(S9) (Cell Signaling Technology, USA) protein as a primary antibody, followed by reaction at 4° C. for 12 hours. At this time, the antibody against actin (Santa Cruz Biotechnology, USA) protein was used for the control group. Upon completion of the reaction, the secondary antibody corresponding to the primary antibody was added thereto, followed by reaction at room temperature for 30 minutes. The PVDF membrane was washed with TBS-T buffer three times. The washed PVDF membrane was added with ECL solution (Thermo Scientific, USA), followed by image observation.
To investigate the changes in insulin sensitivity when insulin was added to the fatty liver cell model constructed in vitro, the phosphorylations of those proteins that were involved in insulin signaling mechanism were examined. PA was added to the human HepG2 cells prepared in Example 3, followed by reaction for 24 hours. […]

[2] = ITC of C2 domain with PI(3,4,5)P3 liposomes; format: binding
Experimental: (§1) Particularly, a protein solution was prepared by suspending a protein in 10 mM HEPES (pH 7.0). Phospholipid related ligand was titrated in the protein solution at 25° C. by using iTC200 micro calorimetry system (MicroCal Inc., USA), and the generated graph was corrected using Origin software (MicroCal Inc., USA). At this time, the phospholipid related ligand was prepared in the form of liposome by mixing POPC (1-palmitoyl-2-oleoyl-sn-glycero-3-phosphocholin) chloroform solution and POPS (1-palmitoyl-2-oleoyl-sn-glycero-3-phosphoserine), PI(3,4)P2 (1,2-dipalmotoyl-sn-glycero-3-phosphatidylinositol-3,4-[…]), PI(4,5)P2 (1,2-dipalmotoyl-sn-glycero-3-phosphatidylinositol-4,5-trisphosphate) or PI(3,4,5)P3 (1,2-dipalmotoyl-sn-glycero-3-phosphatidylinositol-3,4,5-trisphosphate) at the molar ratio of 80:20. The organic solvent was eliminated. The organic solvent was removed and a single layer lamellar was produced in HEPES (pH 7.0) using phospholipids.
In the meantime, in ITC, the phospholipid related ligand was prepared in the form of liposome by mixing POPC chloroform solution and PI(3,4,5)P3 at the molar ratio of 80:20. Then, ITC was performed by the same manner under the same conditions as described in Example <7-3> except that the PKCβ protein C2 domain or D187/193A, the C2 domain mutant, was used.

[3] = Protein-lipid binding assay (PIP-strips)
Experimental: (§2) Particularly, the analysis was performed by using membrane-immobilized lipid strips (PIP-strips, Echelon Biosciences Inc., USA). At this time, the membrane was loaded with LPA (lysophosphatidic acid), LPC (lysophosphatidylcholine), PI (phosphatidylinositol), PE (phosphatidylethanolamine), PC (phosphatidylcholine), S1P (sphingosine 1-phosphate), PA (phosphatidic acid) or PS (phosphatidylserine) at the concentration of 100 pmol, to which calcium was added at the concentration of 0, 0.05 or 0.1 mM. Each membrane was pre-treated with a blocking buffer [fatty acid free 3% BSA (bovine serum albumin), 0.1% (v/v) Tween 20 and TBS (Tris-buffered saline), pH 7.5] at room temperature for 30 minutes. The PH domain of Atk protein purified in Example <7-1> was suspended in a blocking buffer at the concentration of 3.5 mg/Ml. The suspended protein was reacted with the membrane-immobilized lipid strip at room temperature for 30 minutes. The protein bound with lipid was identified by using the PH domain antibody.
To investigate whether or not the binding of the PKCβ protein C2 domain purified in Example <8-1> to PI(4,5)P2 or PI(3,4,5)P3 was inhibited by calcium, protein-lipid binding assay and ITC were performed. First, protein-lipid binding assay was performed by the same manner under the same conditions as described in Example <7-2> except that the PKCβ protein C2 domain was used instead of the Akt protein PH domain. At this time, D187/193A and D246/248A mutant proteins of the C2 domain were used as the control group, and the results are shown in FIG. 8.

CHO cells = test: Migration of mCherry-tagged PH or C2 domain to the cell membrane, fluorescence microscopy; format: cell-based
From the text: First, the PH domain of Akt1 protein or the C2 domain of PKCβ protein was obtained by PCR using the primers consisting of the nucleotide sequences represented by […]. The obtained PCR product was cloned in pmCherry-C1 vector (Takara Clontech, Japan) by the conventional cloning method. CHO cells were transfected with the prepared vector by using lipofectamine according to the manufacturer's protocol. The transfected cells were selected by using blastidicin. Then, mCherry positive cells were confirmed by flow cytometry.
PMA at the concentration of 100 nM, ionomycin at the concentration of 10 μM or insulin at the concentration of 100 nM was added to the cells expressing the PH domain of Akt1 protein or the C2 domain of PKCβ protein and the location of the expressed protein was confirmed by fluorescence microscopy.

Akt protein [4] = test: Western blot of Akt activation in HepG2 cells co-transfected with PI3K under increased calcium; format: cell-based, human
[5] = ITC of phospholipid liposomes with calcium; format: binding; conditions: liposome with POPC 80:20, 25° C.
Experimental: as §1

[6] = Protein-lipid binding assay (PIP-strips); remark: listed apart in the source
Experimental: as §2

[7] = HepG2, PMA 0, 10, 50 or 100 nM or ionomycin 0, 1, 5, 10 or 20 μM, 100 nM insulin, dose-dependent
[8] = membrane-immobilized lipid strips
[9] = intracellular calcium concentration increased (PMA 100 nM, ionomycin 10 μM)

For `C[C@H](CCC(=O)O)C[C@H](C)C[C@H](C)C(=O)/C=C(\O)[C@H](C)C[C@H](C)C/C=C/[C@@H](C)[C@@H](O)[C@@H](C)[C@@H](O)C[C@@H]1CC[C@@](C)([C@H]2CC[C@@](C)([C@@H](C)O)O2)O1` [ionomycin], which “phosphorylation of Akt protein” value (Akt protein [1]; [7]) is on record?
Its value is “significantly inhibited”.

With “C2 domain of PKCβ protein: purified C2 domain of PKCβ protein, SEQ. ID. NO: 14” as the molecule, how does the “binding to PI(3,4,5)P3 by ITC” value ([2]; absence of calcium) read?
Its value is “not induced”.

What about the “binding to PI(3,4,5)P3 by ITC” value ([2]; increased calcium concentration, POPC:PI(3,4,5)P3 80:20 liposome) of the same molecule?
Its value is “strongly bound”.

What about the “effect of calcium on binding to PI(3,4,5)P3” value ([3]; calcium 0, 0.05 or 0.1 mM) of the same molecule?
The value was “promoted”.

And the “effect of calcium on binding to PI(4,5)P2” value ([3]; calcium 0, 0.05 or 0.1 mM)?
Its value is “promoted”.

What about the “binding to PI(3,4,5)P3” value [3, 8] of the same molecule?
Its value is “strongly bound”.

And the “binding to PI(4,5)P2” value [3, 8]?
Its value is “strongly bound”.

And the “migration to the cell membrane” value (CHO cells; insulin 100 nM added)?
Its value is “did not migrate to the cell membrane”.

What about the “migration to the cell membrane” value (CHO cells; [9]) of the same molecule?
The value was “migrated as the intracellular calcium concentration was increased”.

With “wild type Akt protein: control: wild type Akt protein containing the PH domain, SEQ. ID. NO: 16” as the molecule, how does the “Akt protein activation by PI3K” value (Akt protein [4]) read?
The value was “activated”.

What about the “Akt protein activation as calcium concentration increases” value (Akt protein [4]; PMA 0, 10, 50 or 100 nM, ionomycin 20 μM, 1 hour) of the same molecule?
The value was “inhibited”.

For `CCCCCCCCCCCCCC(=O)O[C@@H]1[C@@H](C)[C@@]2(O)[C@@H](C=C(CO)C[C@]3(O)C(=O)C(C)=C[C@@H]23)[C@@H]2C(C)(C)[C@]12OC(C)=O` [PMA, phorbol myristate acetate], which “phosphorylation of Akt protein” value (Akt protein [1]; [7]) is on record?
The value was “significantly inhibited”.

For `COc1ccc(CCN(C)CCCC(C#N)(c2ccc(OC)c(OC)c2)C(C)C)cc1OC` (stereo not shown) [verapamil], which “phosphorylation of Akt protein” value (Akt protein [1]; HepG2, verapamil 0, 5, 10 or 100 nM, effect of insulin addition) is on record?
Its value is “increased”.

Which binding to calcium [5] does the source give for `CCCCCCCCCCCCCCCC(=O)OCC(COP(=O)(O)OC1C(O)C(O)C(OP(=O)(O)O)C(OP(=O)(O)O)C1O)OC(=O)CCCCCCCCCCCCCCC` (stereo not shown) [PI(4,5)P2, 1,2-dipalmotoyl-sn-glycero-3-phosphatidylinositol-4,5-trisphosphate] here?
The binding to calcium was “high affinity”.

For `CCCCCCCCCCCCCCCC(=O)OCC(COP(=O)(O)OC1C(O)C(O)C(OP(=O)(O)O)C(OP(=O)(O)O)C1O)OC(=O)CCCCCCCCCCCCCCC` (stereo not shown) [PI(3,4)P2, 1,2-dipalmotoyl-sn-glycero-3-phosphatidylinositol-3,4-triphosphate], which binding to calcium [5] is on record?
Its binding to calcium is “high affinity”.

For `CCCCCCCCCCCCCCCC(=O)OCC(COP(=O)(O)OC1C(O)C(OP(=O)(O)O)C(OP(=O)(O)O)C(OP(=O)(O)O)C1O)OC(=O)CCCCCCCCCCCCCCC` (stereo not shown) [PI(3,4,5)P3, 1,2-dipalmotoyl-sn-glycero-3-phosphatidylinositol-3,4,5-trisphosphate], which binding to calcium [5] is on record?
The binding to calcium was “high affinity”.

B1: PH domain of Akt protein: purified PH domain of Akt1 protein, SEQ. ID. NO: 13 (protein)
chain: MSDVAIVKEGWLHKRGEYIKTWRPRYFLLKNDGTFIGYKERPQDVDQREAPLNNFSVAQCQLMKTERPRPNTFIIRCLQWTTVIERTFHVETPEEREEWTTAIQTVADGLKKQEEEEMDFRSGSPSDNSGAEEMEVSLAKPKHR
modifications: artificial_PH domain of Akt protein
Which “effect of calcium on binding to PI(3,4)P2” value ([6]; calcium 0, 0.05 or 0.1 mM) does the source give for B1 here?
Its value is “inhibited as calcium concentration was increased”.

And the “binding to PI(3,4)P2” value [6, 8]?
Its value is “bound”.

What about the “effect of calcium on binding to PI(3,4,5)P3” value ([3]; calcium 0, 0.05 or 0.1 mM) of the same molecule?
Its value is “inhibited as calcium concentration was increased”.

What about the “binding to PI(3,4,5)P3” value [3, 8] of the same molecule?
Its value is “bound”.

What about the “migration to the cell membrane” value (CHO cells; insulin 100 nM added) of the same molecule?
Its value is “migrated to the cell membrane”.

What about the “migration to the cell membrane” value (CHO cells; [9]) of the same molecule?
Its value is “not observed”.
